Several values for one entry are separate records, joined by “and”; a condition that tells them apart may be missing. Identical values can stand only once. Numbers after ± are expanded uncertainties.
Experiment: molar heat capacity at constant pressure; xn = mol fraction of the nth substance listed
Details: 100 kPa

[Si] [silicon] + [Li]
Details | molar heat capacity at constant pressure
660 K, Crystal of intercomponent compound 1, relaxation calorimetry + DSC, x2 = 0.81 | 29.4 ± 1.2 J/K/mol
660 K, Crystal of intercomponent compound 2, relaxation calorimetry + DSC, x2 = 0.804 | 30.54 ± 1.2 J/K/mol
661.54 K, Crystal of intercomponent compound 2, Small sample (50 mg) DSC, x2 = 0.804 | 30.1 ± 0.74 J/K/mol and 30.48 ± 0.75 J/K/mol
661.72 K, Crystal of intercomponent compound 1, Small sample (50 mg) DSC, x2 = 0.81 | 29.4 ± 0.72 J/K/mol
661.75 K, Crystal of intercomponent compound 1, Small sample (50 mg) DSC, x2 = 0.81 | 29.72 ± 0.73 J/K/mol
671.45 K, Crystal of intercomponent compound 2, Small sample (50 mg) DSC, x2 = 0.804 | 30.27 ± 0.74 J/K/mol and 30.68 ± 0.75 J/K/mol
671.64 K, Crystal of intercomponent compound 1, Small sample (50 mg) DSC, x2 = 0.81 | 29.62 ± 0.73 J/K/mol
671.66 K, Crystal of intercomponent compound 1, Small sample (50 mg) DSC, x2 = 0.81 | 29.83 ± 0.73 J/K/mol
680 K, Crystal of intercomponent compound 1, relaxation calorimetry + DSC, x2 = 0.81 | 29.94 ± 1.2 J/K/mol
680 K, Crystal of intercomponent compound 2, relaxation calorimetry + DSC, x2 = 0.804 | 30.97 ± 1.3 J/K/mol
681.36 K, Crystal of intercomponent compound 2, Small sample (50 mg) DSC, x2 = 0.804 | 30.52 ± 0.75 J/K/mol and 30.84 ± 0.76 J/K/mol
681.56 K, Crystal of intercomponent compound 1, Small sample (50 mg) DSC, x2 = 0.81 | 29.62 ± 0.73 J/K/mol
681.57 K, Crystal of intercomponent compound 1, Small sample (50 mg) DSC, x2 = 0.81 | 30.16 ± 0.74 J/K/mol
691.29 K, Crystal of intercomponent compound 2, Small sample (50 mg) DSC, x2 = 0.804 | 30.56 ± 0.75 J/K/mol and 31.08 ± 0.76 J/K/mol
691.47 K, Crystal of intercomponent compound 1, Small sample (50 mg) DSC, x2 = 0.81 | 29.94 ± 0.73 J/K/mol
691.48 K, Crystal of intercomponent compound 1, Small sample (50 mg) DSC, x2 = 0.81 | 30.38 ± 0.74 J/K/mol
700 K, Crystal of intercomponent compound 1, relaxation calorimetry + DSC, x2 = 0.81 | 30.53 ± 1.2 J/K/mol
700 K, Crystal of intercomponent compound 2, relaxation calorimetry + DSC, x2 = 0.804 | 31.4 ± 1.3 J/K/mol
701.21 K, Crystal of intercomponent compound 2, Small sample (50 mg) DSC, x2 = 0.804 | 31.04 ± 0.76 J/K/mol and 31.36 ± 0.77 J/K/mol
701.37 K, Crystal of intercomponent compound 1, Small sample (50 mg) DSC, x2 = 0.81 | 30.27 ± 0.74 J/K/mol
701.39 K, Crystal of intercomponent compound 1, Small sample (50 mg) DSC, x2 = 0.81 | 30.6 ± 0.75 J/K/mol
711.13 K, Crystal of intercomponent compound 2, Small sample (50 mg) DSC, x2 = 0.804 | 31.38 ± 0.77 J/K/mol and 31.59 ± 0.77 J/K/mol
711.28 K, Crystal of intercomponent compound 1, Small sample (50 mg) DSC, x2 = 0.81 | 30.6 ± 0.75 J/K/mol
711.3 K, Crystal of intercomponent compound 1, Small sample (50 mg) DSC, x2 = 0.81 | 30.82 ± 0.75 J/K/mol
720 K, Crystal of intercomponent compound 1, relaxation calorimetry + DSC, x2 = 0.81 | 31.18 ± 1.3 J/K/mol
720 K, Crystal of intercomponent compound 2, relaxation calorimetry + DSC, x2 = 0.804 | 31.84 ± 1.3 J/K/mol
721.05 K, Crystal of intercomponent compound 2, Small sample (50 mg) DSC, x2 = 0.804 | 31.75 ± 0.78 J/K/mol and 32.03 ± 0.78 J/K/mol
721.2 K, Crystal of intercomponent compound 1, Small sample (50 mg) DSC, x2 = 0.81 | 30.49 ± 0.75 J/K/mol
721.22 K, Crystal of intercomponent compound 1, Small sample (50 mg) DSC, x2 = 0.81 | 31.15 ± 0.76 J/K/mol
730.97 K, Crystal of intercomponent compound 2, Small sample (50 mg) DSC, x2 = 0.804 | 32.1 ± 0.79 J/K/mol and 32.36 ± 0.79 J/K/mol
731.12 K, Crystal of intercomponent compound 1, Small sample (50 mg) DSC, x2 = 0.81 | 31.04 ± 0.76 J/K/mol
731.13 K, Crystal of intercomponent compound 1, Small sample (50 mg) DSC, x2 = 0.81 | 31.37 ± 0.77 J/K/mol
740 K, Crystal of intercomponent compound 1, relaxation calorimetry + DSC, x2 = 0.81 | 31.88 ± 1.3 J/K/mol
740 K, Crystal of intercomponent compound 2, relaxation calorimetry + DSC, x2 = 0.804 | 32.3 ± 1.3 J/K/mol
740.89 K, Crystal of intercomponent compound 2, Small sample (50 mg) DSC, x2 = 0.804 | 32.38 ± 0.79 J/K/mol and 32.64 ± 0.8 J/K/mol
741.03 K, Crystal of intercomponent compound 1, Small sample (50 mg) DSC, x2 = 0.81 | 31.26 ± 0.77 J/K/mol
741.04 K, Crystal of intercomponent compound 1, Small sample (50 mg) DSC, x2 = 0.81 | 31.7 ± 0.78 J/K/mol
750.81 K, Crystal of intercomponent compound 2, Small sample (50 mg) DSC, x2 = 0.804 | 32.68 ± 0.8 J/K/mol and 32.92 ± 0.81 J/K/mol
750.95 K, Crystal of intercomponent compound 1, Small sample (50 mg) DSC, x2 = 0.81 | 31.81 ± 0.78 J/K/mol
750.96 K, Crystal of intercomponent compound 1, Small sample (50 mg) DSC, x2 = 0.81 | 32.14 ± 0.79 J/K/mol
760 K, Crystal of intercomponent compound 1, relaxation calorimetry + DSC, x2 = 0.81 | 32.63 ± 1.3 J/K/mol
760 K, Crystal of intercomponent compound 2, relaxation calorimetry + DSC, x2 = 0.804 | 32.82 ± 1.3 J/K/mol
760.73 K, Crystal of intercomponent compound 2, Small sample (50 mg) DSC, x2 = 0.804 | 33.14 ± 0.81 J/K/mol and 33.47 ± 0.82 J/K/mol
760.87 K, Crystal of intercomponent compound 1, Small sample (50 mg) DSC, x2 = 0.81 | 32.14 ± 0.79 J/K/mol and 32.58 ± 0.8 J/K/mol
770.64 K, Crystal of intercomponent compound 2, Small sample (50 mg) DSC, x2 = 0.804 | 33.77 ± 0.83 J/K/mol and 34.02 ± 0.83 J/K/mol
770.79 K, Crystal of intercomponent compound 1, Small sample (50 mg) DSC, x2 = 0.81 | 33.23 ± 0.82 J/K/mol and 33.34 ± 0.82 J/K/mol
771.71 K, Crystal of intercomponent compound 1, Small sample (50 mg) DSC, x2 = 0.81 | 33.67 ± 0.83 J/K/mol
773.69 K, Crystal of intercomponent compound 1, Small sample (50 mg) DSC, x2 = 0.81 | 33.78 ± 0.83 J/K/mol
775.67 K, Crystal of intercomponent compound 1, Small sample (50 mg) DSC, x2 = 0.81 | 33.89 ± 0.83 J/K/mol
777.66 K, Crystal of intercomponent compound 1, Small sample (50 mg) DSC, x2 = 0.81 | 34.22 ± 0.84 J/K/mol
779.64 K, Crystal of intercomponent compound 1, Small sample (50 mg) DSC, x2 = 0.81 | 34.39 ± 0.84 J/K/mol
780 K, Crystal of intercomponent compound 1, relaxation calorimetry + DSC, x2 = 0.81 | 33.45 ± 1.4 J/K/mol
780 K, Crystal of intercomponent compound 2, relaxation calorimetry + DSC, x2 = 0.804 | 33.49 ± 1.4 J/K/mol
780.56 K, Crystal of intercomponent compound 2, Small sample (50 mg) DSC, x2 = 0.804 | 34.41 ± 0.84 J/K/mol and 34.69 ± 0.85 J/K/mol
780.7 K, Crystal of intercomponent compound 1, Small sample (50 mg) DSC, x2 = 0.81 | 34 ± 0.83 J/K/mol
780.71 K, Crystal of intercomponent compound 1, Small sample (50 mg) DSC, x2 = 0.81 | 34.22 ± 0.84 J/K/mol
781.63 K, Crystal of intercomponent compound 1, Small sample (50 mg) DSC, x2 = 0.81 | 34.88 ± 0.85 J/K/mol
783.61 K, Crystal of intercomponent compound 1, Small sample (50 mg) DSC, x2 = 0.81 | 34.99 ± 0.86 J/K/mol
785.59 K, Crystal of intercomponent compound 1, Small sample (50 mg) DSC, x2 = 0.81 | 35.21 ± 0.86 J/K/mol
787.58 K, Crystal of intercomponent compound 1, Small sample (50 mg) DSC, x2 = 0.81 | 35.32 ± 0.87 J/K/mol
789.57 K, Crystal of intercomponent compound 1, Small sample (50 mg) DSC, x2 = 0.81 | 35.32 ± 0.87 J/K/mol
790.48 K, Crystal of intercomponent compound 2, Small sample (50 mg) DSC, x2 = 0.804 | 34.65 ± 0.85 J/K/mol and 35.21 ± 0.86 J/K/mol
790.61 K, Crystal of intercomponent compound 1, Small sample (50 mg) DSC, x2 = 0.81 | 34.99 ± 0.86 J/K/mol
790.63 K, Crystal of intercomponent compound 1, Small sample (50 mg) DSC, x2 = 0.81 | 34.55 ± 0.85 J/K/mol
791.55 K, Crystal of intercomponent compound 1, Small sample (50 mg) DSC, x2 = 0.81 | 35.54 ± 0.87 J/K/mol
793.53 K, Crystal of intercomponent compound 1, Small sample (50 mg) DSC, x2 = 0.81 | 35.76 ± 0.88 J/K/mol
795.51 K, Crystal of intercomponent compound 1, Small sample (50 mg) DSC, x2 = 0.81 | 36.31 ± 0.89 J/K/mol
797.49 K, Crystal of intercomponent compound 1, Small sample (50 mg) DSC, x2 = 0.81 | 36.96 ± 0.91 J/K/mol
800 K, Crystal of intercomponent compound 1, relaxation calorimetry + DSC, x2 = 0.81 | 34.34 ± 1.4 J/K/mol
800 K, Crystal of intercomponent compound 2, relaxation calorimetry + DSC, x2 = 0.804 | 34.61 ± 1.4 J/K/mol
800.39 K, Crystal of intercomponent compound 2, Small sample (50 mg) DSC, x2 = 0.804 | 35.13 ± 0.86 J/K/mol and 35.58 ± 0.87 J/K/mol
810.3 K, Crystal of intercomponent compound 2, Small sample (50 mg) DSC, x2 = 0.804 | 35.47 ± 0.87 J/K/mol and 36.02 ± 0.88 J/K/mol
820 K, Crystal of intercomponent compound 2, relaxation calorimetry + DSC, x2 = 0.804 | 36.83 ± 1.5 J/K/mol
820.22 K, Crystal of intercomponent compound 2, Small sample (50 mg) DSC, x2 = 0.804 | 36.24 ± 0.89 J/K/mol and 36.35 ± 0.89 J/K/mol
830.13 K, Crystal of intercomponent compound 2, Small sample (50 mg) DSC, x2 = 0.804 | 38.35 ± 0.94 J/K/mol and 38.57 ± 0.95 J/K/mol
840 K, Crystal of intercomponent compound 2, relaxation calorimetry + DSC, x2 = 0.804 | 41.72 ± 1.7 J/K/mol
840.04 K, Crystal of intercomponent compound 2, Small sample (50 mg) DSC, x2 = 0.804 | 41.23 ± 1 J/K/mol and 41.78 ± 1 J/K/mol
849.95 K, Crystal of intercomponent compound 2, Small sample (50 mg) DSC, x2 = 0.804 | 45.22 ± 1.1 J/K/mol and 47.32 ± 1.2 J/K/mol
859.87 K, Crystal of intercomponent compound 2, Small sample (50 mg) DSC, x2 = 0.804 | 51.54 ± 1.3 J/K/mol and 53.53 ± 1.3 J/K/mol
860 K, Crystal of intercomponent compound 2, relaxation calorimetry + DSC, x2 = 0.804 | 52.81 ± 2.1 J/K/mol
869.79 K, Crystal of intercomponent compound 2, Small sample (50 mg) DSC, x2 = 0.804 | 60.18 ± 1.5 J/K/mol and 65.17 ± 1.6 J/K/mol
